Laboratory results reported in patent publication US12612389B2, “Benzofuran-based N-acylhydrazone derivative and pharmaceutical composition comprising same” (KOREA RESEARCH INSTITUTE OF BIOSCIENCE AND BIOTECHNOLOGY, priority 2019, dated 2026).
Where two headings read alike, the source gives them in different places. Values belong to the compound of their own block, whether it stands above or below them.

Assays:
[1] = Stability in buffer (line of the metabolic stability test); type: in vitro ADME
Description: (§1) The test compounds at a concentration of […] were administered in the presence or absence of NADPH (1 mM) to liver […] (0.5 mg protein/mL) of humans, rats and mice, and metabolic stability was tested at 37° C. for 30 minutes. In addition, buspirone was used as a positive control. Results thereof are shown in Table below and FIGS. 4A to 4E.

HeLa cells = experiment: Anti-proliferative activity test in HeLa cell line (MTT); type: cell-based; settings: Homo sapiens, 48 h, grown for 2 days, mean of 2
Description: HeLa cells (American Type Culture Collection: ATCC, USA), a human cervical cancer cell line, were seeded in a 96-well plate at 3×10^3 cells/well, and the cells were then treated with compounds of Examples or Comparative Example according to the present invention and grown for 2 days. Then, MTT (3-(4,5-dimethylthiazol-2-yl)-2,5-diphenyltetrazolium bromide) reagent was added at 10 μL/well. After 2 hours, absorbance was measured at “OD 450” and statistical values were obtained using Prism™6 program. The data shown in Table below are mean values of results obtained by repeating the analysis twice.

[2] = Solubility test in administration solvent; type: physicochemical; settings: 2.0 mg/mL; Solvent A 20%, Solvent B 20%, Solvent C 60% (dimethylacetamide/Cremophor EL/20% HPbCD)
Description: The test substances were accurately weighed and placed in a glass vial. Then, solvent A was added in an amount corresponding to 20% of the desired final solution volume, and the mixture was completely dissolved by treatment with a vortexer and sonication. Next, solvent B in an amount corresponding to 10% or 20% of the final solution volume was added and mixed well. […] Finally, the mixture was subjected to sonication for 30 seconds. The mixed solution was prepared and used immediately before administration in the experiment. • Solvent A: Dimethylacetamide produced by SigmaAldrich • Solvent B: Cremophor EL produced by SigmaAldrich • Solvent C: 20% HPbCD ((2-Hydroxypropyl)-β-cyclodextrin produced by SigmaAldrich) in deionized water

[3] = Metabolic stability test in liver microsomes; type: in vitro ADME; settings: 0.5 mg protein/mL, 37° C.
Description: as §1

[4] = Pharmacokinetic (PK) test; type: in vivo, male ICR mice; settings: for Vd: iv; for AUC(0-t): read-out: AUClast, Mean
Description: Pharmacokinetic (PK) parameters of the Example compounds according to the present invention were determined using male ICR mice as follows (n=3).
Pharmacokinetic (PK) parameters were measured by non-compartmental analysis of plasma concentration-time curves using Kinetica™ 4.4.1 (Thermo Fisher Scientific, USA). Results thereof are shown in Table below and FIGS. 5A to 5C. In Table below, “F” parameter was calculated using AUClast, “N/A” indicates the phrase not applicable, and “NC” indicates the phrase not calculated.

Stability test in plasma [5] = type: in vitro ADME; settings: Rat plasma, 37° C.
Description: (§2) In order to test the stability (in vivo) of the Example compounds according to the present invention, the compounds of Examples 2, 3, 4, 8 and 15 were administered intravenously, and plasma concentrations over time were observed. In addition, procaine was used as a positive control. Plasma stability was measured three times by administering the test compound at a concentration of 5 mM to human, rat, or mouse plasma (90 μL) at 37° C. Results thereof are shown in Table below and FIGS. 3A to 3E.

HeLa CCL2 tumor = experiment: Anticancer effect test in human cervical cancer cell (HeLa CCL2) transplantation model; type: in vivo, BALB/C female nude mouse; settings: 25 mg/kg intraperitoneally, p<0.001
Description: After thawing the human […] cancer cell line HeLa CCL2 that was stored frozen in liquid nitrogen, cell culture was performed. The cells were cultured for an appropriate period in a CO2 incubator (Forma, USA) at a temperature of 37° C. and a CO2 concentration of 5%.
On the last day of culture, all cancer cells were collected and counted, and the cell concentration was adjusted to 1×10^7 cells/mL using serum free media. The cell culture solution as adjusted above was injected subcutaneously into the axillary region between the shoulder blade and the chest wall in an amount of 0.3 mL (3×10^6 cells/mouse) per BALB/C female nude mouse (5 weeks old, Nara Biotech).
Immediately prior to administration, the compounds were dissolved in a mixture of DMAC (dimethylacetamide) 20%+Tween80 5%+20% HPbCD (2-hydroxypropyl-β-cyclodextrin) 75% at an appropriate concentration and used. The prepared substances were repeatedly administered intraperitoneally in an amount of 0.2 mL (10 mL/kg) per 20 g of a mouse according to the following administration schedule. • carrier, the compound of Example 4, the compound of Example 8, and the compound of Example 15 (25 mg/kg), 0-28 days 4.3. Confirmation of Change in Tumor Size
After cancer cell transplantation, the tumor size of each animal subject was measured a total of 11 times in 3 directions using a vernier caliper from when the mean tumor size reached 57.0 mm^3 until Day 28, and calculated by the formula of length×width×height/2.
In order to test the degree of toxicity upon repeated intraperitoneal administration of the Example compound to HeLa CCL2 cancer cell transplantation nude mice, general symptoms and body weight changes of the animal subjects were observed during the administration period.
On Day 28 after drug administration, blood was collected from the mouse ophthalmic veins in 2 hours post the last administration, and the mice were killed using CO2 gas. Images of the mice were taken, and the tumor was separated and weighed on an electronic scale. After taking the images, each tumor was divided in half and fixed in liquid nitrogen and formalin, respectively. On […] after drug administration, the HeLa CCL2 tumor was excised and weighed.

Stability test in plasma [6] = type: in vitro ADME; set-up: Residue % (180 minutes elapsed), Mean: dose or concentration left out as unconfirmed; settings: 37° C.
Description: as §2, with “of 5 mM” left out

MCF7/ADR = experiment: Anti-proliferative activity test in cancer cells exhibiting multidrug resistance (MTT); type: cell-based; settings: for IC50: Homo sapiens, NCI/ADR-RES, 96 h, MCF7/ADR (multidrug-resistant), 4 days, MTT; for Resistance Factor: ratio IC50 MCF7/ADR to IC50 MCF7
Description: (§3) HeLa cells (American Type Culture Collection: ATCC, USA), a human cervical cancer cell line, were seeded in a 96-well plate at 3×10^3 cells/well, and the cells were then treated with compounds of Examples or Comparative Example according to the present invention and grown for 2 days. Then, MTT (3-(4,5-dimethylthiazol-2-yl)-2,5-diphenyltetrazolium bromide) reagent was added at 10 μL/well. […] The data shown in Table below are mean values of results obtained by repeating the analysis twice. Specifically, K562 and MCF7 (Bio Evaluation Center, Korea Research Institute of Bioscience and Biotechnology, Korea) and multidrug-resistant cell lines of each of these cell lines, i.e., K562/ADR and MCF7/ADR (Bio Evaluation Center, Korea Research Institute of Bioscience and Biotechnology, Korea), were cultured on microtiter plates (1-3×10^3 cells/well). […] The data shown in Table below are mean values of results obtained by repeating the analysis three times.

K562/ADR = experiment: as above; type: cell-based; settings: for IC50: Homo sapiens, 96 h, K562/ADR (multidrug-resistant), 4 days, MTT; for Resistance Factor: ratio IC50 K562/ADR to IC50 K562
Description: as §3

MCF7 = experiment: Anti-proliferative activity test in cancer cells exhibiting multidrug resistance (MTT), parent line; type: cell-based; settings: Homo sapiens, 96 h, 4 days
Description: as §3

K562 = experiment: as above; type: cell-based; settings: Homo sapiens, 96 h, 4 days
Description: as §3

[7] = male, ICR, mouse, plasma, Oral administration, 20 mg/kg, mice, n=3

Residue (%) after culturing for 30 min [1]: 91.02 ± 2.89% | IC50 (HeLa cells): 123 nM | Solubility evaluation result [2]: Soluble | Residue (%) after culturing for 30 min ([3]; Human, +NADPH): 7.94 ± 0.74% | Residue (%) after culturing for 30 min ([3]; Human, −NADPH): 88.63 ± 1.61% | Residue (%) after culturing for 30 min ([3]; Mouse, +NADPH): 4.82 ± 0.52% | Residue (%) after culturing for 30 min ([3]; Mouse, −NADPH): 86.31 ± 1.72% | Residue (%) after culturing for 30 min ([3]; Rat, +NADPH): 3.47 ± 0.25% | Residue (%) after culturing for 30 min ([3]; Rat, −NADPH): 94.95 ± 1.93% | F, Mean ([4]; Oral 20 mg/kg vs intravenous 5 mg/kg, calculated using AUClast): 0.3% | Vd ([4]; male, ICR, mouse, plasma, 5 mg/kg, Intravenous administration, 5 mg/kg, mice, n=3, read-out: Vss, Mean): 0.71 L/kg | Vd ([4]; male, ICR, mouse, plasma, 5 mg/kg, Intravenous administration, 5 mg/kg, mice, n=3, read-out: Vz, Mean): 1.37 L/kg | AUC(0-inf) ([4]; male, ICR, mouse, plasma, Intravenous administration, 5 mg/kg, mice, n=3, read-out: AUCinf, Mean): 1730 ng·h/mL | AUC(0-t) ([4]; male, ICR, mouse, plasma, Intravenous administration, 5 mg/kg, mice, n=3): 1720 ng·h/mL | clearance ([4]; male, ICR, mouse, plasma, Intravenous administration, 5 mg/kg, mice, n=3, read-out: CL, Mean (converted)): 48.2 mL/min/kg | MRT inf ([4]; male, ICR, mouse, plasma, Intravenous administration, 5 mg/kg, mice, n=3, read-out: MRTinf, Mean): 14.4 min | half-life ([4]; male, ICR, mouse, plasma, Intravenous administration, 5 mg/kg, mice, n=3, read-out: t1/2, Mean (converted)): 19.8 min | Cmax [4, 7]: 34.4 ng/mL | Tmax [4, 7]: 15 min | AUC(0-t) [4, 7]: 18 ng·h/mL | half-life at 5 mM (Stability test in plasma [5]): 134 min | Residue % (180 minutes elapsed), Mean (Stability test in plasma [5]; 5 mM): 41.74% | Residue % (180 minutes elapsed), Mean (Stability test in plasma [6]; Human plasma): 4.20% | half-life at 5 mM (Stability test in plasma [6]; Human plasma): 160 min | Residue % (180 minutes elapsed), Mean (Stability test in plasma [6]; Mouse plasma): 57.25% | half-life at 5 mM (Stability test in plasma [6]; Mouse plasma): > 180 min
Compound: CCOCCn1c(Cl)c(/C=N/NC(=O)c2cc3cc(OC)ccc3o2)c2cc(OC)ccc21 [Example 15, (E)-N′-[(2-chloro-1-(2-ethoxyethyl)-5-methoxy-1H-indol-3-yl]methylene}-5-methoxybenzofuran-2-carbohydrazide]
tumor growth inhibition (HeLa CCL2 tumor; 0-28 days, Day 28, tumor size): 40.13% | reduction in tumor weight compared with solvent control (HeLa CCL2 tumor; excised tumor): 26.2%

IC50 (MCF7/ADR): 1030 nM | IC50 (K562/ADR): 700 nM | IC50 (MCF7): 2.35 nM | IC50 (K562): 1.35 nM
Compound: CC(=O)O[C@H]1C(=O)[C@@]2(C)[C@H]([C@H](OC(=O)c3ccccc3)[C@]3(O)C[C@H](OC(=O)[C@H](O)[C@@H](NC(=O)c4ccccc4)c4ccccc4)C(C)=C1C3(C)C)[C@]1(OC(C)=O)CO[C@@H]1C[C@@H]2O [Taxol, taxol]
Resistance Factor (MCF7/ADR): 438.38 | Resistance Factor (K562/ADR): 519.6

IC50 (MCF7/ADR): 95.9 nM | IC50 (K562/ADR): 268 nM | IC50 (MCF7): 5.28 nM | IC50 (K562): 17.1 nM
Compound: CC[C@]1(O)C[C@@H]2CN(CCc3c([nH]c4ccccc34)[C@@](C(=O)OC)(c3cc4c(cc3OC)N(C)[C@H]3[C@@](O)(C(=O)OC)[C@H](OC(C)=O)[C@]5(CC)C=CCN6CC[C@]43[C@@H]65)C2)C1 [Vinblastine, vinblastine]
Resistance Factor (MCF7/ADR): 18.17 | Resistance Factor (K562/ADR): 15.63
